Assay results as given in PubChem BioAssay (NCI).
Several values for one entry are separate records, joined by “and”; a condition that tells them apart may be missing. Equal entries are not always repeated.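 Each compound was tested at five concentrations against cells in 96-well plates for 48 hours. Here, GI50 denotes the concentration required for 50% inhibition of growth. The concentration for full growth arrest is given as TGI.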

Tests used:
Assay in all cases: DTP human tumour cell line panel, 48 h
[1] = tested on: HCC-2998 colon
[2] = tested on: HOP-92 NSCLC
[3] = tested on: HS 578T breast
[4] = tested on: RPMI-8226 leukemia
[5] = tested on: SF-268 CNS
[6] = tested on: SK-MEL-5 melanoma
[7] = tested on: SNB-75 CNS
[8] = tested on: SR leukemia
[9] = tested on: U251 CNS
[10] = tested on: UO-31 renal

| Structure (SMILES) | GI50 [1] | TGI [1] | GI50 [2] | TGI [2] | GI50 [3] | TGI [3] | GI50 [4] | TGI [4] | GI50 [5] | TGI [5] | GI50 [6] | TGI [6] | GI50 [7] | TGI [7] | GI50 [8] | TGI [8] | GI50 [9] | TGI [9] | GI50 [10] | TGI [10] |
| --- | --- | --- | --- | --- | --- | --- | --- | --- | --- | --- | --- | --- | --- | --- | --- | --- | --- | --- | --- | --- |
| CCN1CCN(c2ccc(NC(=O)Nc3nc4ccc(-c5ccccc5OC)cc4s3)cc2)CC1 | 1.83 µM | 3.39 µM | 1.47 µM | 3.75 µM | 1.95 µM | 4.45 µM | 2.06 µM | 4.6 µM | 1.87 µM | 3.63 µM | 1.73 µM | 3.12 µM | 1.49 µM | 2.86 µM | 1.65 µM | 4.31 µM | 1.57 µM | 2.94 µM | 1.52 µM | 2.92 µM |
| CN(C(=O)C(C)(C)C)c1ccccc1I(=O)=O | > 100 µM | > 100 µM | 15.9 µM | 96.7 µM | > 100 µM | > 100 µM | 18.8 µM | 66 µM | > 100 µM | > 100 µM | 74.1 µM | > 100 µM | > 100 µM | > 100 µM | 3.15 µM | 26.4 µM | 89.1 µM | > 100 µM | > 100 µM | > 100 µM |
| CN1CCN(Cc2ccc(NC(=O)c3cncc(C#Cc4ccc(N)nc4)c3)cc2C(F)(F)F)CC1 | 1.96 µM | 6.96 µM | 0.408 µM | 1.76 µM | 0.486 µM | 2.16 µM | 1.05 µM | 3.82 µM | 1.09 µM | 5.3 µM | 1.17 µM | 3.24 µM | 1.06 µM | 3.53 µM | 0.679 µM | 3.51 µM | 0.924 µM | 6.6 µM | 0.716 µM | 2.93 µM |
| CC1(C)OCC2OC(n3cnc4c(N)nc(Cl)nc43)C(OS(C)(=O)=O)C2O1 (stereo unspecified) | – | > 100 µM | – | > 100 µM | – | > 100 µM | – | > 100 µM | – | > 100 µM | – | > 100 µM | – | > 100 µM | – | > 100 µM | – | > 100 µM | – | > 100 µM |
| Nc1nc(N)c2c(ccc3c2ccn3Cc2cccc([N+](=O)[O-])c2)n1 | 0.049 µM | 1.56 µM | – | 3.05 µM and 1.05 µM | 1.61 µM | 3.38 µM | 0.0585 µM and 0.0185 µM | – | 0.0535 µM | 1.99 µM | 0.0744 µM | 2.15 µM and 1.45 µM | 1.11 µM | 2.36 µM | 0.00779 µM | – | 0.018 µM | 1.72 µM | 0.043 µM | 0.806 µM |
| CCC(=O)OCOc1ccc(/C=C2\CCC(CN(C)C)C2=O)cc1 (stereo unspecified) | – | 18.5 µM | – | 29.5 µM | – | > 79 µM | – | > 23.3 µM | – | 22.5 µM | – | 26.6 µM | – | 27.6 µM | – | 9.25 µM | – | 26.2 µM | – | 19 µM |
| COc1c(C(N)=O)cc(-c2ccc(Cl)cc2)cc1-c1ccc(S(N)(=O)=O)cc1 | 11.4 µM | > 25 µM | 3.26 µM | 10.4 µM | 14.4 µM | 24.9 µM | 9.13 µM | > 25 µM | 8.81 µM | > 25 µM | 7.4 µM | > 25 µM | 7.76 µM | > 25 µM | 6 µM | 15.7 µM | 9.52 µM | > 25 µM | 9.95 µM | > 23.5 µM |
| COc1cc2[nH]c3c(c2cc1OC)CCN[C@@]31CC[C@@]2(CC3c4c(cc(OC)c(O)c42)CCN3C)C[C@@H]1OC (stereo partly specified) | – | > 83.4 µM | – | 69.3 µM | – | > 52.5 µM | – | > 56.2 µM | – | > 100 µM | – | 30.3 µM | – | 54 µM | – | 36.6 µM | – | > 91.4 µM | – | 57.8 µM |
| O=C1C2=C(C(=O)c3ccccc31)C(O)(S(=O)(=O)O)C(O)(S(=O)(=O)O)C1N=CC=CC21 (stereo unspecified) | 4.63 µM and 3.93 µM | 60.4 µM and 17.5 µM | 2.96 µM and 1.85 µM | 26.9 µM and 6.81 µM | 4.93 µM and 3.71 µM | 75.7 µM and 29.8 µM | 4.99 µM and 3.99 µM | > 100 µM and 27.6 µM | 3.93 µM and 5.96 µM | 41.4 µM and 32.1 µM | 3.96 µM and 3.63 µM | 16.3 µM and 14.5 µM | 4.08 µM and 3.17 µM | 41.9 µM and 19.6 µM | 4.58 µM and 1.14 µM | > 100 µM and 50.1 µM | 3.85 µM and 2.69 µM | 28.8 µM and 17.8 µM | 2.46 µM and 2.19 µM | 27 µM and 13 µM |
| CC12CCC(C1)C(C)(C)C2OC(=O)c1ccccc1N (stereo unspecified) | – | 27.9 µM | – | 24.4 µM | – | 31.5 µM | – | 16.9 µM | – | 31.6 µM | – | 31 µM | – | 35.1 µM | – | 25.8 µM | – | 32.6 µM | – | 30.8 µM |
| CCOC(=O)N1CCC(N=C2CSc3nnc(-c4cc(C(F)(F)F)cc(C(F)(F)F)c4)n3N2)CC1 | 2.25 µM | 4.78 µM | 1.97 µM | 5 µM | 2.31 µM | 6.4 µM | 2.54 µM | 7.11 µM | 2.23 µM | 4.86 µM | 1.61 µM | 3 µM | 1.92 µM | 5.54 µM | 2.39 µM | 6.23 µM | 1.77 µM | 3.53 µM | 1.66 µM | 5.4 µM |
| COC(=O)Nc1nc2ccc(C(=O)c3cccc(I)c3)cc2[nH]1 | 0.208 µM | 30.6 µM | 0.0985 µM | 11.7 µM | 0.0904 µM | 25.7 µM | 0.0365 µM | 1.27 µM | 0.18 µM | 17.5 µM | 0.068 µM | 2.31 µM | 0.0514 µM | 15.4 µM | 0.0314 µM | – | 0.0559 µM | 12.3 µM | 0.316 µM | 17.2 µM |
| Clc1cnc(Nc2ccc(OCCN3CCCC3)cc2)nc1NCc1ccco1 | 2.92 µM | 9.59 µM | 1.14 µM | 6.6 µM | 1.39 µM | 5.18 µM | 2.25 µM | 5.49 µM | 2.33 µM | 6.47 µM | 1.62 µM | 3.42 µM | 1.91 µM | 4.27 µM | 1.4 µM | 6.61 µM | 2.81 µM | 11.4 µM | 1.87 µM | 11.6 µM |
| COc1cc2ncnc(Oc3ccc(NC(=O)Nc4ccc(CN5CCOCC5)c(C(F)(F)F)c4)c4ccccc34)c2cc1OC | 4.8 µM | 18.8 µM | 0.413 µM | 6.74 µM | 1.28 µM | 7.27 µM | 0.297 µM | 2.02 µM | 0.453 µM | 8.94 µM | 0.499 µM | 2.34 µM | 0.957 µM | 12.8 µM | 0.752 µM | 6.02 µM | 1.05 µM | 4.01 µM | 0.189 µM | 2.98 µM |
